The source made the active and inactive calls. The rule behind the calls is not given here.
Legend:
NCI-H1975 [1] = assay: Antiproliferative activity against human NCI-H1975 cells harboring FLAG-tagged MCM2 assessed as reduction in cell viability incubated for 72 hrs by SRB assay; assay type: functional, cell-based; details: NCI-H1975, 72 h
[2] = target: T1, DNA replication licensing factor MCM5 (Homo sapiens) (UniProt P33992); assay: Induction of ubiquitination of MCM5 in human NCI-H1975 cells incubated for 48 hrs by immunoblot analysis (reference value: 1); assay type: cell-based
T1 sequence (whole entry): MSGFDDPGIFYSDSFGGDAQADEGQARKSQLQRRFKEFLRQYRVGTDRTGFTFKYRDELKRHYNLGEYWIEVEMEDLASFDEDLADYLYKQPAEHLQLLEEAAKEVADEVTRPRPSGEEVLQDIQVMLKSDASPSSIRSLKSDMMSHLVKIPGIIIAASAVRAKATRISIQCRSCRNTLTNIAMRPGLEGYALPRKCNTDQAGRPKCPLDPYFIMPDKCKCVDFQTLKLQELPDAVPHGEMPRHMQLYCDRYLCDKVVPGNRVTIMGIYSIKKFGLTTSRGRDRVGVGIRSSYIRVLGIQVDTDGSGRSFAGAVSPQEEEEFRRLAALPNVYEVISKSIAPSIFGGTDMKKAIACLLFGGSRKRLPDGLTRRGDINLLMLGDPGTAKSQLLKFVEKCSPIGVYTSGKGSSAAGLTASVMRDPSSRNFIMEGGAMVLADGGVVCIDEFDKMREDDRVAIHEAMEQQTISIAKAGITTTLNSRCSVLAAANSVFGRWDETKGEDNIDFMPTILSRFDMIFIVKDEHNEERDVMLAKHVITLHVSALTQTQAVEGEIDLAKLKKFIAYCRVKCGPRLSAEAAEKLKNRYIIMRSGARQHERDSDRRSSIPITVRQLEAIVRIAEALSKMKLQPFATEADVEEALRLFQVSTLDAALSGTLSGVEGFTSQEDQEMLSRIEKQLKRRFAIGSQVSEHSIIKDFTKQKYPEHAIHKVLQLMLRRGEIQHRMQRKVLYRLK

[3] = target: DNA replication licensing factor MCM7 (Homo sapiens) (UniProt P33993); assay: Induction of ubiquitination of MCM7 in human NCI-H1975 cells incubated for 48 hrs by immunoblot analysis (reference value: 1); assay type: cell-based
[4] = Toxicity in athymic nude BALB/c mouse xenografted with human NCI-H1975 cells assessed as effect on serum creatinine at 1 or 4 mg/kg, ip administered for 4 weeks; assay type: organism-based; details: in vivo, 672 h
NCI-H1975 [5] = assay: Cell cycle arrest in human NCI-H1975 cells assessed as BrdU positive cells at 140 nM incubated for 24 hrs by BrdUrd incorporation assay (reference value: 44.5 +/- 2 %); assay type: functional
[6] = target: DNA replication licensing factor MCM2 (Homo sapiens) (UniProt P49736); assay: Induction of ubiquitination of MCM2 in human PC9 cells incubated for 24 hrs by immunoblot analysis; assay type: cell-based; details: PC-9
[7] = Toxicity in athymic nude BALB/c mouse xenografted with human NCI-H1975 cells assessed as effect on serum blood urea nitrogen at 1 or 4 mg/kg, ip administered for 4 weeks; assay type: organism-based; details: in vivo, 672 h

Sequence of DNA replication licensing factor MCM7 (Homo sapiens) (P33993 whole entry): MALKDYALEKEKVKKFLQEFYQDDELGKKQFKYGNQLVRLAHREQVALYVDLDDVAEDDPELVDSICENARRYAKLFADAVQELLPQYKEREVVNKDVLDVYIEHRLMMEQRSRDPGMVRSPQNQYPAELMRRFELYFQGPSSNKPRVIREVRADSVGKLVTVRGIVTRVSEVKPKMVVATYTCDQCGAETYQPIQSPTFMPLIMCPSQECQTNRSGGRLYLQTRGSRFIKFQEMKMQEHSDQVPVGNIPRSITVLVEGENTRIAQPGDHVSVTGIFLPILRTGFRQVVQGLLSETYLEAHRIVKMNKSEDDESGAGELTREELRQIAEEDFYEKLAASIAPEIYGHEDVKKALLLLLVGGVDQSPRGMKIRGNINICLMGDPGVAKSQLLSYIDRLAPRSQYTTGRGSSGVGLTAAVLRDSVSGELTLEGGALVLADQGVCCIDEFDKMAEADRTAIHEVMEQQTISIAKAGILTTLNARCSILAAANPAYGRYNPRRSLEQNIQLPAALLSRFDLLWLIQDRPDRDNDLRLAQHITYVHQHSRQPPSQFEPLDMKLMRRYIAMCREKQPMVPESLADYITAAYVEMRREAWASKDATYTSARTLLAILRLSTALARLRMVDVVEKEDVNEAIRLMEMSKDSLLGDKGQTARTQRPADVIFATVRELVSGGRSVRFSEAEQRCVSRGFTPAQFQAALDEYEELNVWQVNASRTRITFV
Sequence of DNA replication licensing factor MCM2 (Homo sapiens) (P49736 whole entry): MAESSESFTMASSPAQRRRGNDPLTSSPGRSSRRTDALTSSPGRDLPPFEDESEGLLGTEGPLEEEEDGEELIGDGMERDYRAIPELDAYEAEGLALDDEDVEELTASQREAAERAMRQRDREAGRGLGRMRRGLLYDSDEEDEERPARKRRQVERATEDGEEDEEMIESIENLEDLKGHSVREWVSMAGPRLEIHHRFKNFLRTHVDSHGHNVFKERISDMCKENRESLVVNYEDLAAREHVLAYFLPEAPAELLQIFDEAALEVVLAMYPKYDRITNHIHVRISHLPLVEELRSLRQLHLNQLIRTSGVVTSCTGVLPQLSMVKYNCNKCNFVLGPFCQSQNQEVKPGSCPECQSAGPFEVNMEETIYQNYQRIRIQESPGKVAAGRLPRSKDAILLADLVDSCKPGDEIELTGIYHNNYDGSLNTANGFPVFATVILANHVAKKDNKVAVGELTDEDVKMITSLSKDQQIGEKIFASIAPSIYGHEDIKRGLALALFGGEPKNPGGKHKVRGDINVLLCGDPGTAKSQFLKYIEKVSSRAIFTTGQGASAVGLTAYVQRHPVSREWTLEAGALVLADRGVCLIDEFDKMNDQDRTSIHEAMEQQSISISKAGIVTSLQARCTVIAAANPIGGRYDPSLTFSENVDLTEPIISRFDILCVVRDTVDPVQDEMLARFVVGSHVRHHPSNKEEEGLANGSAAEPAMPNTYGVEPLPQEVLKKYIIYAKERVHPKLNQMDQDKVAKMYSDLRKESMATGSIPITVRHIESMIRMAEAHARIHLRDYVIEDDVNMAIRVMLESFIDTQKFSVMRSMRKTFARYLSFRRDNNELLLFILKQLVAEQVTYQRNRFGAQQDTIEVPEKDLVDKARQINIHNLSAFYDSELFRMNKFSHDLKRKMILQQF

- IC50 (NCI-H1975 [1]): 0.071 µM
- Activity [2]: 0.6
- Activity [3]: 0.5
- Activity [6]: Active
SMILES: Cc1oc2c(c1C(=O)NCCCn1ccnc1)C(=O)c1ccccc1C2=O
- Activity [4]: Non-Toxic
- Activity (NCI-H1975 [5]): 27.7%
- Activity [7]: Non-Toxic

From ChEMBL document CHEMBL4602694, “Suppression of Drug-Resistant Non-Small-Cell Lung Cancer with Inhibitors Targeting Minichromosomal Maintenance Protein” (J Med Chem, 2020)
